Columns and labels:
mosquito larvae = conditions: cited from earlier work
cotton aphids = conditions: cited from earlier work
southern corn rootworm = conditions: cited from earlier work
tobacco bud worm = conditions: tobacco budworm; cited from earlier work
fish, mammals = conditions: fish versus mammals; cited from earlier work
cabbage looper = conditions: cited from earlier work
[1] = rat versus trout liver microsomes; cited from earlier work
tobacco budworm = conditions: cited from earlier work
[2] = tested on: ova from cat flea (Ctenocephalides felis); assay: Activity against C. felis ova (larval emergence in treated vials); format: in vivo
Excerpt: Activity Against C. Felis Ova
Evaluation of test compounds against flea ova is a commonly-used assay for the determination of commercial efficacy against these insect parasites (McTier T L et al., Evaluation of the effects of selamectin against adult and immature stages of fleas (Ctenocephalides felis felis) on dogs and cats. Vet Parasitol. 2000 Aug. 23; 91(3-4):201-12; Dryden M et al., Efficacy of a topically applied formulation of metaflumizone on cats against the adult cat flea, flea egg production and hatch, and adult flea emergence. Vet Parasitol. 2007 Dec. 15; 150(3):263-7). Compounds were dissolved in acetone and 100 μl of each solution was placed in 5 ml glass vials and allowed to air dry. Forty ova from cat flea (Ctenocephalides felis) that were less than 48 hours old as well as flea dirt (primarily adult flea fecal material and host dander) were placed in the vials. Vials were covered with paper towels to allow air exchange and incubated at 25° with 90% humidity for 5 days, and the number of larvae were counted.

[3] = tested on: Larval-stage lone star ticks (Amblyomma americanum); assay: Dip survival assay (larval immersion microassay) against A. americanum larvae; format: in vivo; conditions: submerged 30 minutes, counted after 24 hours
Excerpt: Activity Against A. Americanum Larvae in a Dip Survival Assay
Using a previously-described protocol that can effectively predict compound potency against adult ticks in the field (White, W H. et al., An in vitro larval immersion microassay for identifying and characterizing candidate acaricides. J Med Entomol. 2004 November; 41(6):1034-42), test compounds from a dimethyl sulfoxide (DMSO) stock or 2% DMSO alone were dispensed into a round-bottom 96-well plate and mixed with aqueous buffer containing 1% ethanol and 0.2% Triton X100. […] Larval-stage lone star ticks (Amblyomma americanum) were dispensed into the wells containing test compounds and submerged for 30 minutes. The ticks were subsequently dispensed into a tissue biopsy bag, which is allowed to dry for 1 hour. After drying, the bags were incubated at 25° with 95% humidity for 24 hours and the number of live and dead larvae were counted.

SMILES | LC50 (mosquito larvae) [ppm] | LC50 (cotton aphids) [ppm] | activity (LC50) (southern corn rootworm) | metabolism (tobacco bud worm) | toxicity (fish, mammals) | LC50 (cabbage looper) [ppm] | degradation by liver microsomes [1] | activity (LC50) (tobacco budworm) | Flea larvae emerging, percent of total eggs, from 40 ova after 5 days ([2]; 10 μg per vial) [%] | Number of flea larvae emerging from 40 ova after 5 days ([2]; 10 μg per vial) | Flea larvae emerging, percent of total eggs, from 40 ova after 5 days ([2]; 100 μg per vial) | Number of flea larvae emerging from 40 ova after 5 days ([2]; 100 μg per vial) | Flea larvae emerging, percent of total eggs, from 40 ova after 5 days ([2]; 1 mg per vial) | Number of flea larvae emerging from 40 ova after 5 days ([2]; 1 mg per vial) | Number of live/total tick larvae 24 hours after treatment ([3]; concentration 0.001%) | Number of live/total tick larvae 24 hours after treatment ([3]; concentration 0.01%) | Number of live/total tick larvae 24 hours after treatment ([3]; concentration 0.05%)
CC(C)(C)c1ccc(CCOc2ncnc3ccccc23)cc1 [Formula I, 4-tert-butylphenethyl quinazolin-4-yl ether] | 0.725 | 2.6 | greater than 400 ppm | extensively metabolized | higher toxicity of the compound to fish than to mammals | 188 | degraded more extensively by rat liver microsomes than by trout liver microsomes | greater than 400 ppm | 10 | 4 | 2.5% | 1 | 2.5% | 1 | 23/80 | 0/51 | 0/48
CCc1nn(C)c(C(=O)NCc2ccc(C(C)(C)C)cc2)c1Cl [Formula II, 4-chloro-5-ethyl-2-methyl-N-[(4-tert-butylphenyl)methyl]pyrazole-3-carboxamide] | – | – | – | – | – | – | – | – | 17.5 | 7 | 2.5% | 1 | 2.5% | 1 | 38/85 | 0/77 | 0/69
CCc1nn(C)c(C(=O)NCc2ccc(Oc3ccc(C)cc3)cc2)c1Cl [Formula IV, 4-chloro-3-ethyl-1-methyl-N-[4-(p-tolyloxy)benzyl]pyrazole-5-carboxamide] | – | – | – | – | – | – | – | – | 15 | 6 | 0 (0%) | 0 (0%) | 0 (0% ) | 0 (0% ) | 58/114 | 0/79 | 0/76

— patent US8808717B2, “Control of ectoparasites” (priority 2007, dated 2014)
